Seven compounds from ChEMBL document CHEMBL1208683, “Insights into binding modes of adenosine A(2B) antagonists with ligand-based and receptor-based methods” (Eur J Med Chem, 2010) can be followed below.

Structures are written as SMILES.

One test deals with T1, Adenosine receptor A3 (Homo sapiens, UniProt P0DMS8).
T1 sequence (P0DMS8 whole entry): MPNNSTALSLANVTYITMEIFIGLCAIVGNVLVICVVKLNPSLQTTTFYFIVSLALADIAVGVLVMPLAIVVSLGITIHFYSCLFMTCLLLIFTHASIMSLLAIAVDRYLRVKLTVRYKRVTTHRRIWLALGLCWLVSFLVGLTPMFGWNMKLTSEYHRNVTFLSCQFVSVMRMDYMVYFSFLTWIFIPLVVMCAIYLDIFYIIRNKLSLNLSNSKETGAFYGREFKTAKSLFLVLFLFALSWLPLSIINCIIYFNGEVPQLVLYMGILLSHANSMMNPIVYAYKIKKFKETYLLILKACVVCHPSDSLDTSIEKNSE

The next test concerns the target T2, Adenosine receptor A2b (Homo sapiens, UniProt P29275).
T2 sequence (P29275 whole entry): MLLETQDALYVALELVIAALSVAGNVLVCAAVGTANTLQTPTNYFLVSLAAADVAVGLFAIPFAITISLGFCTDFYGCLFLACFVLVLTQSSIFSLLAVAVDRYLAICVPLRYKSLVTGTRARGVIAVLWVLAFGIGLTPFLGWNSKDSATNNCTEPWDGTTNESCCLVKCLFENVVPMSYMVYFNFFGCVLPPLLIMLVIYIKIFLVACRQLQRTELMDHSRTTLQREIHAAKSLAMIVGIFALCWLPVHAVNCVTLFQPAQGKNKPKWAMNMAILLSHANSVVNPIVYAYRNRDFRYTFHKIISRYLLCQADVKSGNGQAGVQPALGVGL

Test [1] addresses T3, Adenosine receptor A2a (Homo sapiens, UniProt P29274).
Description: (§1) Antagonist activity against human adenosine A2A receptor
For test [2], the target named is T4, Adenosine receptor A1 (Rattus norvegicus, UniProt P25099).
T4 sequence (P25099 whole entry): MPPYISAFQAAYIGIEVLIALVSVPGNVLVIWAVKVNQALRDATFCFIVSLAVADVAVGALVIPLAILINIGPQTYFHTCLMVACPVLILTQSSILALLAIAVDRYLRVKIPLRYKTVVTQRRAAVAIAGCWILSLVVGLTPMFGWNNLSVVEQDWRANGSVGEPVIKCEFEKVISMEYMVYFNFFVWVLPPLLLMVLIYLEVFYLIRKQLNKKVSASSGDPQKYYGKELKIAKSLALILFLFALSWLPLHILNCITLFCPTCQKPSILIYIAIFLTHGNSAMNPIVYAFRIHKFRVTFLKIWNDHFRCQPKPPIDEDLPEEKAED
The test is described as follows: Antagonist activity against rat adenosine A1 receptor. The format is functional.

For test [3], the target named is Adenosine receptor A2a (Rattus norvegicus, UniProt P30543). The test is described as follows: Antagonist activity against rat adenosine A2A receptor. The format is functional.
Sequence of Adenosine receptor A2a (Rattus norvegicus, UniProt P30543) (P30543 whole entry): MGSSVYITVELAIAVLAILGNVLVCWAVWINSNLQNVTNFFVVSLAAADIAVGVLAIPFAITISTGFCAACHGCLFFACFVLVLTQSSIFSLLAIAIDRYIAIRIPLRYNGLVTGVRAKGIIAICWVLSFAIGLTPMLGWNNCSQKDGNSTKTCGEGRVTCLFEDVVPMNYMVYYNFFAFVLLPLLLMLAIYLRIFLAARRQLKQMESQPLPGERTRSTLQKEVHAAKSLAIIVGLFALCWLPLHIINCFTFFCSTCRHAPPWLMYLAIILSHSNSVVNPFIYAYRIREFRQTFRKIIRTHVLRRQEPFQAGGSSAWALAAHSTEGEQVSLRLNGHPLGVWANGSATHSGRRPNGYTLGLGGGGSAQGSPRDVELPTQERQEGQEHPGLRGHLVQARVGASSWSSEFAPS
Test [4] has as its target T3, Adenosine receptor A2a. The source holds these as a separate data set.
Description: as §1
The target of test [5] is T5, Adenosine receptor A1 (Homo sapiens, UniProt P30542).
T5 sequence (P30542 whole entry): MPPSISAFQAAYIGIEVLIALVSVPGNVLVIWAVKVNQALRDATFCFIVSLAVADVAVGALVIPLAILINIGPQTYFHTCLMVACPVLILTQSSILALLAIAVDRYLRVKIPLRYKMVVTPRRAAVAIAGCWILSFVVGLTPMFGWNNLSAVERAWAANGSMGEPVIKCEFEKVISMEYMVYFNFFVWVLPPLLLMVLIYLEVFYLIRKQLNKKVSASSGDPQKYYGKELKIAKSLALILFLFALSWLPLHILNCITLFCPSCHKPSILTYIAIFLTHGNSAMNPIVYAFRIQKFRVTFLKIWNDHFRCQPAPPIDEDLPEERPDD
Description: Antagonist activity against human adenosine A1 receptor

T3 sequence (P29274 whole entry): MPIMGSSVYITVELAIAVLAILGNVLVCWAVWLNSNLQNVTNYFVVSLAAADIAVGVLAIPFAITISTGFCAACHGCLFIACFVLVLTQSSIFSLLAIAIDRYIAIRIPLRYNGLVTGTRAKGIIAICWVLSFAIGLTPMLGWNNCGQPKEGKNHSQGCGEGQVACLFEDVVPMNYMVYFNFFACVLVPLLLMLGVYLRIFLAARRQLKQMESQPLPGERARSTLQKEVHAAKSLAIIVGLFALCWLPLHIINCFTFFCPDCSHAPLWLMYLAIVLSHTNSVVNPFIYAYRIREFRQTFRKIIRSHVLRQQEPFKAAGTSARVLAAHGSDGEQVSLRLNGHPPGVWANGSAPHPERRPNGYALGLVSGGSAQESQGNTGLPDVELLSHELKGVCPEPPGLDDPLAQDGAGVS
Description for Adenosine receptor A2b: Antagonist activity against human adenosine A2B receptor
Description for Adenosine receptor A3: Antagonist activity against human adenosine A3 receptor

On Adenosine receptor A3, `CCCn1c(=O)c2nc(-c3cnn(Cc4cc(C(F)(F)F)ccc4Cl)c3)[nH]c2n(CCC)c1=O` gave an inhibition constant Ki of 54 nM. This counts as double-digit nanomolar.
Consider `Cn1c(=O)c2c(nc(-c3ccccc3)n2O)n(C)c1=O`, for which the inhibition constant (Ki) on Adenosine receptor A2b is 1660 nM; on Adenosine receptor A3, above 9000 nM. The same compound gave an Activity at Adenosine receptor A2a [1] of 12%.
`CCOc1cccc2c(C)nc(N=C(N)N)nc12`: the inhibition constant (Ki) on Adenosine receptor A1 [2] stood at 1330 nM; at Adenosine receptor A2b, 1780 nM; at Adenosine receptor A2a [3], 624 nM.
In the case of `COc1ccc2c(C)nc(NC3=NCC(=O)N3)nc2c1`, the inhibition constant (Ki) was 1290 nM at Adenosine receptor A1 [2], 112 nM on Adenosine receptor A2b and 2400 nM on Adenosine receptor A2a [3].
For `Cn1c(=O)c2[nH]c(-c3ccc(S(=O)(=O)NCC(=O)O)cc3)nc2n(C)c1=O`, the inhibitory constant (Ki) at Adenosine receptor A3 was above 10000 nM.
For `CCCn1c(=O)[nH]c2[nH]c(-c3ccc(S(=O)(=O)NCc4ccccc4)cc3)nc2c1=O`, on Adenosine receptor A3, the Ki was above 1000 nM.
For the compound `Nc1nc(-n2cncn2)c2nnn(Cc3ccccc3F)c2n1`, the Ki on Adenosine receptor A2a [4] was found to be 400 nM; at Adenosine receptor A2b it was 1290 nM; on Adenosine receptor A3, 2810 nM; at Adenosine receptor A1 [5], 2960 nM.

Usually Ki stands for the dissociation constant of the complex between target and ligand, obtained from inhibition or displacement. Read a low Ki as a stronger hold on the target.
